Measurements as given in patent publication US20130085105A1, “Transdermal Administration Of Peptides” (The Provost, Fellows and Scholars of the College of Holy …, priority 2010, published 2013).

What was measured:
[1] = In vitro transdermal permeation, diffusion cell, pig epidermis; format: in vitro ADME, domestic pigs
Experimental: The viable epidermal layer was removed from the flanks of freshly sacrificed four month-old female domestic pigs. The flank area of each animal was carefully shaved and the upper 200 μm of skin (Meyer, W., et al., Curr. Prob. Dermatol., 7: 39-52, 1978; de Jalón, et al., J. Control. Rel., 75:191-197, 2001) was harvested using an electric dermatome (Robbins Instruments, Chatham, N.J., U.S.A.). Pigskin epidermal specimens were frozen at −18° C. between layers of PBS-soaked tissue paper enclosed in aluminum foil for up to two weeks prior to use in in vitro permeation studies.
A custom made finite dosing diffusion cell (AGB Scientific, Dublin, Ireland, FIG. 1) based upon and modified from the Keshary-Chien type diffusion cell was used for in vitro permeation studies.
Three to five diffusion cells were used in each permeation experiment and monitoring was performed over a 48 hour period. The cells were linked in series to a thermostatically controlled circulation bath set at 35° C. to mimic human skin surface temperature. Each cell was placed on a stir-plate set at a defined stirring rate of 1,000 rpm. The surface area for permeation provided by each cell was 3.14 cm^2.
Data collected from each permeation study included:
1) the average maximum flux obtained in 48 hours (Jmax),
2) the total absorption characterized as the total weight of peptide delivered transdermally into the receiver compartment over a 48 hour period,
3) the lag time to detectable flux which was equivalent to the latest sampling time at which no peptide was detectable by HPLC analysis of the receiver solution, and
4) an equivalent 48-hour steady state flux was determined by obtaining the slope of the best-fit line for a plot of cumulative flux per unit area versus time (described by McDaid, D. M. et al., Int. J. Pharm., 133:71-83, 1996).
Fresh hairless mouse skin samples or fresh or freshly thawed pig skin samples were mounted onto the diffusion cell with the SC topmost and in contact with the donor system. A rubber or plastic ring was placed on top of the skin sample to secure it in position. The combination of the diffusion cell top, the skin and the rubber ring was securely fastened together by means of a threaded cap. A recorded volume of receiver solution was added to the receiver compartment and maintained at 35° C. The receiver solution was 60/40 (v/v) PBS/propylene glycol (pH 7.1). The propylene glycol fraction was used to increase the solubility of the somatostatin-fatty acid salts. Previous work reported by Morgan et al. (J. Pharm. Sci., 87:1213-1218, 1998) has shown that a 50/50 water/propylene glycol receptor solution had no detrimental effect on the barrier integrity of both hairless mouse and porcine skin.
The receiver solution was allowed to equilibrate at 35° C. for 30 minutes. The experiment was initiated by the application of 1 ml of donor solution containing approximately 5 mg free base peptide in DMSO to the skin surface followed by sealing of the donor compartment with Parafilm®. A narrow-bore hypodermic needle was used to withdraw 1 ml samples from the receiver compartment via the sampling port; at each sampling time, an equal volume of drug-free receiver solution was immediately added back to the receiver compartment. Samples were analyzed by HPLC.
HPLC determination of peptide content in the receiver solution along with the known surface area of skin used (3.14 cm^2) allowed for calculation of transdermal flux (in units of μg/cm^2/hr) for each time point. Panels 1 and 2 of FIG. 2 show flux profiles obtained for the oleate salts of Compound A and Compound B in DMSO which far exceeded the flux profiles for the myristate, octanoate, decanoate, linoleate, nonanote, acetate and laurate salts of Compound A as well as the acetate salt of Compound B in DMSO. […]

[2] = pH of donor vehicles containing Compound B oleate; format: physicochemical
Experimental: The donor vehicles described herein were prepared at or close to neutral pH; this pH is close to the pH at which the fatty acid salts were synthesized and isolated. Because this work focused upon fatty acid peptide salts, a neutral pH was preferred to maintain molecular pairing. As described by Fini et al. (Int. J. Pharm., 187:163-173, 1999), adverse pH conditions can cause salt/ion pairs to dissociate, resulting in the loss of many properties beneficial to increasing transdermal flux, for example lipophilicity. […] Significant dissociation would have led to distortion of the flux profiles due to the formation of free oleic acid, in itself a potent penetration enhancer.

[3] = Solubility of somatostatin fatty-acid salts; format: physicochemical; conditions: 24 hours
Experimental: The solubilities of Compound A and Compound B oleate were determined in deionized water, phosphate-buffered saline (PBS; pH 7.4) and n-octanol. Analysis was carried out by placing an excess of each salt with 1 ml of the selected solvent into four 4 ml sealed HPLC vials. The samples were allowed to equilibrate at 37° C. for 24 hours with shaking. Each of the four dispersions was then filtered through a 0.2 μm nylon membrane (Pall Gelman, Ann Arbor, Mich., U.S.A.). Prior to HPLC analysis, the n-octanol samples were diluted 1:100 with methanol and the PBS and deionized water samples were diluted 1:10 in de-ionized water. Table 7 lists the solubilities of Compound A and Compound B oleate salts in deionized water, PBS and n-octanol.

[4] = pig epidermis overlaid with microporous polypropylene membrane, EtOH/Water/Cineole + 5% (w/v) HPC, 5 mg/ml
[5] = pig epidermis, donor 55% EtOH 40% Water 5% Cineole, 5 mg/ml free base peptide
[6] = pig epidermis, donor 80% Prop. Glycol 15% Decanol 5% Cineole
[7] = pig epidermis, donor 80% Prop. Glycol 15% Dodecanol 5% Cineole

Substance: [4-(2-hydroxyethyl)]-1-piperazinylacetyl-D-Phe-c(Cys-Tyr-D-Trp-Lys-Abu-Cys)-Thr-NH2 [Compound B di-oleate]
- Jmax [1, 4]: 4.200 μg/cm^2/hr
- Jss [1, 4]: 0.309 μg/cm^2/hr
- Lag Time [1, 4]: 1 h
- Total Absorption [1, 4]: 56.89 μg/48 hr
- Jmax [1, 5]: 9.224 μg/cm^2/hr
- Jss [1, 5]: 5.552 μg/cm^2/hr
- Lag Time [1, 5]: 1 h
- Total Absorption [1, 5]: 814.44 μg/48 hr
- Jmax [1, 6]: 6.085 μg/cm^2/hr
- Jss [1, 6]: 4.539 μg/cm^2/hr
- Lag Time [1, 6]: 3.5 h
- Total Absorption [1, 6]: 917.18 μg/48 hr
- Jmax [1, 7]: 3.983 μg/cm^2/hr
- Jss [1, 7]: 3.335 μg/cm^2/hr
- Lag Time [1, 7]: 5 h
- Total Absorption [1, 7]: 600.35 μg/48 hr
- pH ([2]; approx. 5 mg/ml in 55% EtOH 40% H2O 5% 1,8-Cineole): 6.89
- pH ([2]; approx. 5 mg/ml in 80% Prop. Glycol 15% Decanol 5% 1,8-Cineole): 7.08
- pH ([2]; approx. 5 mg/ml in 80% Prop. Glycol 15% Dodecanol 5% 1,8-Cineole): 7.56
- Solubility PBS ([3]; PBS pH 7.4, 37° C.): 1302 µg/mL
- Solubility DI H2O ([3]; deionized water, 37° C.): 50 µg/mL
- Solubility n-Octanol ([3]; n-octanol, 37° C.): 136900 µg/mL
